≈ marks a conversion by molar mass, not a printed value. Read-outs that look alike come from different tables or passages of the source.
Columns and labels:
Escherichia coli EC14 = experiment: MIC, standard agar-dilution assay (Table IX); type: cell-based; details: read-out: MIC
Klebsiella X26 = experiment: MIC, standard agar-dilution assay (Table IX); type: cell-based; details: read-out: MIC
Escherichia coli TEM = experiment: MIC, standard agar-dilution assay (Table IX); type: cell-based; details: read-out: MIC
[1] = tested on: Staphylococcus aureus V41; experiment: MIC, standard agar-dilution assay (Table IX); type: cell-based; details: Staphylococcus aureus V41, Penicillin-resistant strain, read-out: MIC
[2] = tested on: Staphylococcus aureus X400; experiment: MIC, standard agar-dilution assay (Table IX); type: cell-based; details: Staphylococcus aureus X400, Methicillin-resistant strain, read-out: MIC
[3] = tested on: Streptococcus pyogenes C203; experiment: ED50 in mice experimentally infected with S. pyogenes C203 (Table XI); type: in vivo; details: Streptococcus pyogenes, doses given 1 and 4 hours postinfection, read-out: ED50
Protocol: The C-20 modified derivatives of this invention have shown in vivo antimicrobial activity against experimentally-induced infections in laboratory animals. When two doses of test compound were administered to mice experimentally infected with S. pyogenes C203, the activity observed was measured as an ED50 value [effective dose in mg/kg to protect 50% of the test animals: see Warren Wick, et al., J. Bacteriol. 81, 233-235 (1961)].
^a mg/kg × 2; doses given 1 and 4 hours postinfection

[4] = tested on: Streptococcus Group D X66; experiment: MIC, standard agar-dilution assay (Table IX); type: cell-based; details: read-out: MIC
[5] = tested on: Streptococcus pneumoniae Park I; experiment: MIC, standard agar-dilution assay (Table IX); type: cell-based; details: Streptococcus pneumoniae Park I; agar-dilution; read-out: MIC
[6] = tested on: Streptococcus pyogenes C203; experiment: MIC, standard agar-dilution assay (Table IX); type: cell-based; details: read-out: MIC
[7] = tested on: Staphylococcus aureus S13E; experiment: MIC, standard agar-dilution assay (Table IX); type: cell-based; details: Staphylococcus aureus, S13E
[8] = tested on: Pasteurella hemolytica 22C; experiment: MIC, broth-dilution microtiter test (Table X); type: cell-based; details: read-out: MIC
Description: (§1) The MIC's in Table X were obtained using conventional broth-dilution microtiter tests.

[9] = tested on: Pasteurella multocida 17E; experiment: MIC, broth-dilution microtiter test (Table X); type: cell-based; details: Bovine isolate, read-out: MIC
Description: as §1

Staphylococcus aureus = experiment: MIC, broth-dilution microtiter test (Table X); type: cell-based; details: read-out: MIC
Description: as §1

[10] = tested on: Mycoplasma hyopneumoniae S5972; experiment: MIC, broth-dilution microtiter test (Table X); type: cell-based; details: Mesomycoplasma hyopneumoniae, read-out: MIC
Description: as §1

[11] = tested on: Mycoplasma gallisepticum 29C; experiment: MIC, broth-dilution microtiter test (Table X); type: cell-based; details: Mycoplasmoides gallisepticum, read-out: MIC
Description: as §1

Mycoplasma synoviae 40A = experiment: MIC, broth-dilution microtiter test (Table X); type: cell-based; details: Mycoplasmopsis synoviae, read-out: MIC
Description: as §1

Mycoplasma hyorhinis 29E = experiment: MIC, broth-dilution microtiter test (Table X); type: cell-based; details: read-out: MIC
Description: as §1

Streptococcus sp. 19F = experiment: MIC, broth-dilution microtiter test (Table X); type: cell-based; details: read-out: MIC
Description: as §1

[12] = tested on: Pasteurella multocida 60A; experiment: MIC, broth-dilution microtiter test (Table X); type: cell-based; details: Avian isolate, read-out: MIC
Description: as §1

[13] = tested on: Haemophilus influenzae C.L.; experiment: MIC, standard agar-dilution assay (Table IX); type: cell-based; details: Ampicillin-sensitive strain, read-out: MIC
[14] = tested on: Staphylococcus epidermidis 222; experiment: MIC, standard agar-dilution assay (Table IX); type: cell-based; details: read-out: MIC
[15] = tested on: Haemophilus influenzae 76; experiment: MIC, standard agar-dilution assay (Table IX); type: cell-based; details: Haemophilus influenzae 76, Ampicillin-resistant strain, read-out: MIC
[16] = tested on: Staphylococcus epidermidis EPI1; experiment: MIC, standard agar-dilution assay (Table IX); type: cell-based; details: Staphylococcus epidermidis EPI1; agar-dilution; read-out: MIC
Staphyloccus aureus X1.1 = experiment: MIC, standard agar-dilution assay (Table IX); type: cell-based, Staphylococcus aureus; details: Staphylococcus aureus, read-out: MIC
Pasteurella multocida [17] = experiment: Pasteurella infection in one-day-old chicks, subcutaneous administration (Table XII); type: in vivo; details: Administered subcutaneously, 30 mg/kg × 2, 1 and 4 hours post-challenge
Protocol: (§2) Many of the C-20 modified derivatives of this invention have also shown in vivo antibacterial activity against infections induced by gram-negative bacteria. Tables XII and XIII summarize the results of tests in which illustrative compounds were evaluated against a Pasteurella infection in one-day-old chicks. The compounds were administered parenterally or orally after challenge of the chicks with Pasteurella multocida (0.1 ml of a 10^-4 dilution of a twenty-hour tryptose broth culture of an avian P. multocida given subcutaneously). In these tests, unless indicated otherwise, all non-medicated infected chicks died within 24 hours of Pasteurella challenge. In the tests summarized in Table XII, the compounds were administered by subcutaneous injection at a dosage of 30 mg/kg, 1 and 4 hours post-challenge of the chicks with P. multocida. In the tests summarized in Table XIII the compounds were administered in medicated drinking water (at a level of 2 g/gal) available from 4 to 20 hours prior to challenge of the chicks with P. multocida and during the 3 -day test period.
^a Administered subcutaneously; 30 mg/kg × 2

Escherichia coli N10 = experiment: MIC, standard agar-dilution assay (Table IX); type: cell-based; details: read-out: MIC
[18] = tested on: Streptococcus Group D 2041; experiment: MIC, standard agar-dilution assay (Table IX); type: cell-based; details: GROUPD2041, read-out: MIC
Pasteurella multocida [19] = experiment: Pasteurella infection in one-day-old chicks, medicated drinking water (Table XIII); type: in vivo; details: Administered in the available drinking water at 2 g/gal
Protocol: as §2
^a Administered in the available drinking water at a concentration of […]

CCC1OC(=O)CC(O)C(C)C(OC2OC(C)C(O)C(N(C)C)C2O)C(CCN2CC=C(c3ccccc3)CC2)CC(C)C(=O)C=CC(C)=CC1COC1OC(C)C(O)C(OC)C1OC (stereo not drawn) [Compound D26, 20-DH-DO-20-(4-phenyl-1,2,3,6-tetrahydropyridin-1-yl)desmycosin]
MIC (Escherichia coli EC14): 128 µg/mL (≈ 140 µM)
MIC (Klebsiella X26): 64 µg/mL (≈ 69.9 µM)
MIC (Escherichia coli TEM): 32 µg/mL (≈ 35 µM)
MIC [1]: 0.5 µg/mL (≈ 0.546 µM)
MIC [2]: 0.5 µg/mL (≈ 0.546 µM)
ED50 ([3]; C203, Oral): 12.5 mg/kg
ED50 ([3]; C203, sc, Subcutaneous): 5.61 mg/kg
MIC [4]: 1 µg/mL (≈ 1.09 µM)
MIC [5]: 0.25 µg/mL (≈ 0.273 µM)
MIC [6]: 0.25 µg/mL (≈ 0.273 µM)
MIC [7]: 0.5 µg/mL (≈ 0.546 µM)
MIC [8]: 12.5 µg/mL (≈ 13.7 µM)
MIC [9]: 6.25 µg/mL (≈ 6.83 µM)
MIC (Staphylococcus aureus): 3.12 µg/mL (≈ 3.41 µM)
MIC [10]: 0.78 µg/mL (≈ 0.852 µM)
MIC [11]: ≤ 0.048 µg/mL
MIC (Mycoplasma synoviae 40A): 0.78 µg/mL (≈ 0.852 µM)
MIC (Mycoplasma hyorhinis 29E): 25 µg/mL (≈ 27.3 µM)
MIC (Streptococcus sp. 19F): 0.78 µg/mL (≈ 0.852 µM)
MIC [12]: 12.5 µg/mL (≈ 13.7 µM)
MIC [13]: 32 µg/mL (≈ 35 µM)
MIC [14]: 0.25 µg/mL (≈ 0.273 µM)
MIC [15]: 8 µg/mL (≈ 8.74 µM)
MIC [16]: 0.5 µg/mL (≈ 0.546 µM)
MIC (Staphyloccus aureus X1.1): 0.5 µg/mL (≈ 0.546 µM)
Number of Deaths/Number Treated (Pasteurella multocida [17]): 10/10
MIC (Escherichia coli N10): 128 µg/mL (≈ 140 µM)
MIC [18]: 2 µg/mL (≈ 2.19 µM)

CCC1OC(=O)CC(O)C(C)C(OC2OC(C)C(O)C(N(C)C)C2O)C(CCN2CCC(Cc3ccccc3)CC2)CC(C)C(=O)C=CC(C)=CC1COC1OC(C)C(O)C(OC)C1OC (stereo not drawn) [Compound D27, 20-DH-DO-20-(4-benzyl-piperidin-1-yl)desmycosin]
MIC (Escherichia coli EC14): 128 µg/mL (≈ 137 µM)
MIC (Klebsiella X26): 64 µg/mL (≈ 68.7 µM)
MIC (Escherichia coli TEM): 32 µg/mL (≈ 34.4 µM)
MIC [1]: 1 µg/mL (≈ 1.07 µM)
MIC [2]: 1 µg/mL (≈ 1.07 µM)
ED50 ([3]; C203, Oral): 16.5 mg/kg
ED50 ([3]; C203, sc, Subcutaneous): 3.81 mg/kg
MIC [4]: 2 µg/mL (≈ 2.15 µM)
MIC [5]: 0.5 µg/mL (≈ 0.537 µM)
MIC [6]: 0.25 µg/mL (≈ 0.268 µM)
MIC [7]: 1 µg/mL (≈ 1.07 µM)
MIC [8]: 12.5 µg/mL (≈ 13.4 µM)
MIC [9]: 6.25 µg/mL (≈ 6.71 µM)
MIC (Staphylococcus aureus): 3.12 µg/mL (≈ 3.35 µM)
MIC [10]: 0.39 µg/mL (≈ 0.419 µM)
MIC [11]: ≤ 0.048 µg/mL
MIC (Mycoplasma synoviae 40A): ≤ 0.048 µg/mL
MIC (Mycoplasma hyorhinis 29E): 25 µg/mL (≈ 26.8 µM)
MIC (Streptococcus sp. 19F): 0.78 µg/mL (≈ 0.838 µM)
MIC [12]: 12.5 µg/mL (≈ 13.4 µM)
MIC [13]: 32 µg/mL (≈ 34.4 µM)
MIC [14]: 0.25 µg/mL (≈ 0.268 µM)
MIC [15]: 16 µg/mL (≈ 17.2 µM)
MIC [16]: 1 µg/mL (≈ 1.07 µM)
MIC (Staphyloccus aureus X1.1): 1 µg/mL (≈ 1.07 µM)
Number of Deaths/Number Treated (Pasteurella multocida [17]): 8/10
MIC (Escherichia coli N10): 128 µg/mL (≈ 137 µM)
MIC [18]: 4 µg/mL (≈ 4.3 µM)

CCC1OC(=O)CC(O)C(C)C(OC2OC(C)C(O)C(N(C)C)C2O)C(CCN2CC3CCCCC3C2)CC(C)C(=O)C=CC(C)=CC1COC1OC(C)C(O)C(OC)C1OC (stereo not drawn) [Compound D45]
Number of Deaths/Number Treated (Pasteurella multocida [19]): 1/10
Number of Deaths/Number Treated (Pasteurella multocida [17]): 0/10

CCC1OC(=O)CC(O)C(C)C(OC2OC(C)C(O)C(N(C)C)C2O)C(CCN2CC3CCC(C)(C2)C3(C)C)CC(C)C(=O)C=CC(C)=CC1COC1OC(C)C(O)C(OC)C1OC (stereo not drawn) [Compound D47]
Number of Deaths/Number Treated (Pasteurella multocida [19]): 6/10
Number of Deaths/Number Treated (Pasteurella multocida [17]): 0/10
